SMILES strings stand for the structures. Where a name gives a salt, the structure may show the parent alone.

In series [1] the test system is behavioral patterns induced by methylphenidate. Briefly: Inhibition of behavioral patterns induced by methylphenidate (in vivo antidopaminergic activity). The note with it: Rattus norvegicus, ip, read-out: Normalization ED50.
A further series deals with D2 receptors (Homo sapiens, UniProt P14416). Briefly: Affinity for D2-type receptors by displacement of (3H) YM-09151-2. In kind it is binding. The note with it: mean of at least 3 experiments, read-out: D2 pKi (converted). The procedure:
1- Measurement of the affinity of the compounds of the invention for the D2 receptors. The affinity of the compounds of the invention for the D2-type receptors was determined by measuring the displacement of (^3H) YM-09151-2 (NET-1004 70-87 Ci/mmol), according to the method described in Naunyn-Schimiedeberg's Arch. Pharmacol. Methods, 1985, 329, 333. The pKi values (-log Ki) are given in the form of a mean±SEM of at least 3 experiments.

The nature of series [2]: Cataleptogenic power (propensity to induce extrapyramidal side effects). The note with it: rat, in vivo, ip; rats, i.p. administration; read-out: Catalepsy ED50.

D2 receptors, sequence (P14416 whole entry): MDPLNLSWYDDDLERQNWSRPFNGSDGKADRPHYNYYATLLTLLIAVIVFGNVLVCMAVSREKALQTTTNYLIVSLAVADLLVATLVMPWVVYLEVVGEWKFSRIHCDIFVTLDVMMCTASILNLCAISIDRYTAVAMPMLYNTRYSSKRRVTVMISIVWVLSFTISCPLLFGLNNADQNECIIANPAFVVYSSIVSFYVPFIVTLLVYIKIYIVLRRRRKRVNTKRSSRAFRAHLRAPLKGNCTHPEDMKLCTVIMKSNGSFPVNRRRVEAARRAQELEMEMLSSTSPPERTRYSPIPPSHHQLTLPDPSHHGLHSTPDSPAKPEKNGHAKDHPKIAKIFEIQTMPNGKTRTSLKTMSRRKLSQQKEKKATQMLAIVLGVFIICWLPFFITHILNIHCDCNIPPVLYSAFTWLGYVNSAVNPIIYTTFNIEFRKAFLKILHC

For `Cc1nc2n(c(=O)c1CCN1CCC(c3noc4cc(F)ccc34)CC1)CCCC2` [Risperidone, reference compound], in series [1], the ED50 stood at 2.9 mg/kg. As to `CC(C)Oc1ccccc1OCCNCc1cc(OC2CCCC2)ccc1F` [Compound 1.12], the Ki on D2 receptors was 0.741 nM. The median effective dose (ED50) in series [2] was greater than 40 mg/kg; in series [1] it was 1.25 mg/kg.

`CC(C)Oc1ccccc1OCCNCc1cccc(OC2CC3C=CC2C3)c1` (stereo not drawn) (as salt: oxalate) [Compound 1.4] yielded a melting point of 177 °C.

For the molecule `CC(C)Oc1ccccc1OCCNCc1cccc(OC2CC3C=CC2C3)c1` (stereo not drawn) [Compound 1.4], the Ki at D2 receptors is 2.75 nM. Also, the ED50 in series [2] is greater than 40 mg/kg; in series [1] it was 5 mg/kg. `CC(C)Oc1ccccc1OCCNCc1cc(OC2CCCC2)ccc1F` (as salt: oxalate) [Compound 1.12]: the melting point was 159 °C.
